Test [1] concerns the target T1, opioid δ receptor (Rattus norvegicus, UniProt P33533).
T1 construct: Four hundred and eighty microliters of the rat cerebrum membrane fraction; from tissue; host or cells: rat (Slc:SD) cerebrum, crude membrane fraction
The test is described as follows: Opioid receptor binding assay, [3H]-DADLE, rat cerebrum membrane fraction.

Test [2] deals with retching and emesis induced by morphine. The test is described as follows: Effect on the retching and emesis induced by morphine in ferrets. Type of test: in vivo. To be noted: for Duration / Occurrence times / Latent period: mean ± SE; for Latent period: no symptom = 30 min; for Number of individuals with the symptom/Number of cases: morphine 0.6 mg/kg s.c., 30 min observation. Here is the method: About 30 minutes after feeding, ferrets were placed into observation cages and administered with the test compound. The test compound was dissolved into 15% Solutol (Registered trademark) HS15 containing 5% of N,N-dimethylacetamide and 5% of N-methyl-glucamine, and administered at 5 mg/kg. Thirty minutes after administration of the test compound solution, morphine at 0.6 mg/kg was subcutaneously administered in a solution volume of 1 mL/kg, and the retching and emesis symptoms were visually observed for 30 minutes after administration of morphine.
The frequency, latency (the period from the administration of morphine to the initial occurrence of emetic symptom) and duration (the period from the initial emesis to the final emesis) of retching (rhythmical contraction of abdomen), emesis (emetic behavior to discharge the vomit or similar behavior) and both the symptoms were tabulated.
Meanwhile, the latency of a case showing no emesis was assumed to be 30 minutes that were the longest time of observation, and a duration of less than 1 minute after the occurrence of emesis was expressed as 1 minute for the sake of convenience.

[3] abbreviates: Retching + emesis, I-1 0.05 mg/kg.
The mark [4] stands for this setting: Retching + emesis, I-1 0.5 mg/kg.

Data on 6 compounds can be found in patent US20080227803A1, “Indolomorphinan Derivative Having Carboxy in 6'-Position” (SHIOONOGI & CO., LTD., a legal entity of Japan, priority 2004, published 2008).

T1 sequence (P33533 whole entry): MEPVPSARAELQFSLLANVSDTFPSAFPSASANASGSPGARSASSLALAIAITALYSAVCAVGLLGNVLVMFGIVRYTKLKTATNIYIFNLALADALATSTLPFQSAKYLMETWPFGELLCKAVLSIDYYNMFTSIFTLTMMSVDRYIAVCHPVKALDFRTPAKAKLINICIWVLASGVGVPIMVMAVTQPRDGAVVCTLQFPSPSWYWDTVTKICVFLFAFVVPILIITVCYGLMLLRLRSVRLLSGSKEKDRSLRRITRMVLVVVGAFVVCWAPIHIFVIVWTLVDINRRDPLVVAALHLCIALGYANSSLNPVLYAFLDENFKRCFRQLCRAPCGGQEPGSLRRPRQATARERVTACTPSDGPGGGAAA

`CC(=O)OC(C)OC(=O)c1ccc2c3c([nH]c2c1)[C@@H]1Oc2c(O)ccc4c2[C@@]12CCN(CC1CC1)[C@H](C4)[C@]2(O)C3` (stereo partly drawn) [Compound I-8]: the Ki (in general, the dissociation constant of the complex between target and ligand, obtained from inhibition or displacement) in test [1] came to 1.38 nM.
Same read-out and setting: for `Cc1oc(=O)oc1COC(=O)c1ccc2c3c([nH]c2c1)[C@@H]1Oc2c(O)ccc4c2[C@@]12CCN(CC1CC1)[C@H](C4)[C@]2(O)C3` [Compound I-3] the value was 1.06 nM; for `CC(C)(C)C(=O)OCOC(=O)c1ccc2c3c([nH]c2c1)[C@@H]1Oc2c(O)ccc4c2[C@@]12CCN(CC1CC1)[C@H](C4)[C@]2(O)C3` [Compound I-2], 1.7 nM.
Compound `CC(OC(=O)c1ccc2c3c([nH]c2c1)[C@@H]1Oc2c(O)ccc4c2[C@@]12CCN(CC1CC1)[C@H](C4)[C@]2(O)C3)OC(=O)C(C)C` (stereo partly drawn) [Compound I-9] gave a Ki in test [1] of 1.25 nM.
Same read-out and setting: for `CCCC(=O)OCOC(=O)c1ccc2c3c([nH]c2c1)[C@@H]1Oc2c(O)ccc4c2[C@@]12CCN(CC1CC1)[C@H](C4)[C@]2(O)C3` [Compound I-4] the value was 1.14 nM.
Regarding `O=C(O)c1ccc2c3c([nH]c2c1)[C@@H]1Oc2c(O)ccc4c2[C@@]12CCN(CC1CC1)[C@H](C4)[C@]2(O)C3` [Compound I-1, 17-cyclopropylmethyl-6,7-didehydro-4,5α-epoxy-3,14β-dihydroxy-6′-carboxy-6,7-2′,3′-indolomorphinan], the Duration in test [2] (Emesis, I-1 0.05 mg/kg) was found to be 0 ± 0 min; in test [2] (Emesis, I-1 0.5 mg/kg), 0 ± 0 min; in test [2] (Emesis, I-1 5 mg/kg), 0 ± 0 min; in test [2] (setting [3]) it was 0 ± 0 min; in test [2] (setting [4]), 0 ± 0 min; in test [2] (Retching + emesis, I-1 5 mg/kg) it was 0 ± 0 min. The Duration in test [2] (Retching, I-1 0.05 mg/kg) is listed as 0 ± 0 min; in test [2] (Retching, I-1 0.5 mg/kg), 0 ± 0 min; in test [2] (Retching, I-1 5 mg/kg), 0 ± 0 min. Also, the Occurrence times in test [2] (Emesis, I-1 0.05 mg/kg) is reported as 0 ± 0; in test [2] (Emesis, I-1 0.5 mg/kg), 0 ± 0; in test [2] (Emesis, I-1 5 mg/kg), 0 ± 0; in test [2] (setting [3]), 0 ± 0; in test [2] (setting [4]) it was 0 ± 0; in test [2] (Retching + emesis, I-1 5 mg/kg) it was 0 ± 0. The Occurrence times in test [2] (Retching, I-1 0.05 mg/kg) is recorded as 0 ± 0; in test [2] (Retching, I-1 0.5 mg/kg), 0 ± 0; in test [2] (Retching, I-1 5 mg/kg), 0 ± 0. Besides, the Latent period in test [2] (Emesis, I-1 0.05 mg/kg) worked out at 30 ± 0 min; in test [2] (Emesis, I-1 0.5 mg/kg), 30 ± 0 min; in test [2] (Emesis, I-1 5 mg/kg), 30 ± 0 min; in test [2] (setting [3]), 30 ± 0 min; in test [2] (setting [4]) it was 30 ± 0 min; in test [2] (Retching + emesis, I-1 5 mg/kg), 30 ± 0 min. In addition, the Latent period in test [2] (Retching, I-1 0.05 mg/kg) came out at 30 ± 0 min; in test [2] (Retching, I-1 0.5 mg/kg) it was 30 ± 0 min; in test [2] (Retching, I-1 5 mg/kg), 30 ± 0 min. Also, the “Number of individuals with the symptom/Number of cases” value is 0/6 in test [2] (Emesis, I-1 0.05 mg/kg); 0/6 in test [2] (Emesis, I-1 0.5 mg/kg); 0/6 in test [2] (Emesis, I-1 5 mg/kg); 0/6 in test [2] (setting [3]); 0/6 in test [2] (setting [4]); 0/6 in test [2] (Retching + emesis, I-1 5 mg/kg). Also, the “Number of individuals with the symptom/Number of cases” value in test [2] (Retching, I-1 0.05 mg/kg) is reported as 0/6; in test [2] (Retching, I-1 0.5 mg/kg), 0/6; in test [2] (Retching, I-1 5 mg/kg), 0/6. Besides, the Ki in test [1] came out at 0.62 nM.
